Target: T1, CD80-CD28 interaction (Homo sapiens, UniProt P33681)
T1 sequence (P33681 35-242 limits assumed): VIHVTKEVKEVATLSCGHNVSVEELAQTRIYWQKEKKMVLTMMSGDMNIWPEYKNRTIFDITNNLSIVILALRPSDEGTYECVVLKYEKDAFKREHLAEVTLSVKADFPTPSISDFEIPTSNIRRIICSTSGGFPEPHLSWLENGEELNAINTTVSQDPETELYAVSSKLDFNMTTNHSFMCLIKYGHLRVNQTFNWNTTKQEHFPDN
Experiment: Homogenous Time Resolved Fluorescence (HTRF) assay, cell free
Assay type: binding
Conditions: cell free HTRF assay; concentration series 100 μM-1.7 nM; 4 hours at room temperature; read-out: Activity (EC50 in the HTRF assay)
Method: Homogenous Time Resolved Fluorescence Assay
The examples described above were tested in a cell free Homogenous Time Resolved Fluorescence (HTRF) assay to determine their activity as inhibitors of the CD80-CD28 interaction.
In the assay, europium and allophycocyanin (APC) are associated with CD28 and CD80 indirectly (through antibody linkers) to form a complex, which brings the europium and APC into close proximity to generate a signal. The complex comprises the following six proteins: fluorescent label 1, linker antibody 1, CD28 fusion protein, CD80 fusion protein, linker antibody 2, and fluorescent label 2. The table below describes these reagents in greater detail.
On formation of the complex, europium and APC are brought into proximity and a signal is generated.
Non-specific interaction was measured by substituting a mouse Fab fragment (C215) for the CD80 mouse Fab fragment fusion protein (1.9 μg/ml). The assay was carried out in black 384 well plates in a final volume of 30 μl. Assay buffer: 50 mM Tris-HCl, 150 mM NaCl pH7.8, containing 0.1% BSA (w/v) added just prior to use.
Compounds were added to the above reagents in a concentration series ranging between 100 μM-1.7 nM. The reaction was incubated for 4 hours at room temperature. Dual measurements were made using a Wallac Victor 1420 Multilabel Counter. First measurement: excitation 340 nm, emission 665 nm, delay 50 μs, window time 200 μs. second measurement: excitation 340 nm, emission 615 nm, delay 50 μs, window time 200 μs. Counts were automatically corrected for fluorescence crossover, quenching and background. The EC50 activities of compounds tested are recorded as: EC50:*=>10 μM,**=1-10 μM,***=<1 μM.

EC50	SMILES
> 10000 nM	CCCCCCCCCCCCOCCCNC(=O)c1ccc(-n2[nH]c3c(nnc4ccccc43)c2=O)cc1 [Example 273]
< 1000 nM	CCN(CC)CCNC(=O)c1ccc(-n2[nH]c3c(nnc4ccc(F)cc43)c2=O)cc1 [Example 326]
< 1000 nM	CN(C)CC(C)(C)CNC(=O)c1ccc(-n2[nH]c3c(nnc4cccc(F)c43)c2=O)cc1 [Example 404]
< 1000 nM	O=C(NCCCN1CCCC1)c1ccc(-n2[nH]c3c(nnc4ccc(F)cc43)c2=O)cc1 [Example 331]
< 1000 nM	C=CCN(C)CCCCNC(=O)c1ccc(-n2[nH]c3c(nnc4c(F)cccc43)c2=O)cc1 [Example 435]
> 10000 nM	CCCNCCNC(=O)c1ccc(-n2[nH]c3c(nnc4ccccc43)c2=O)cc1 [Example 269]
< 1000 nM	COCCCNC(=O)c1ccc(-n2[nH]c3c(nnc4ccccc43)c2=O)cc1 [Example 247]
< 1000 nM	CCN(CC)CCNCCNC(=O)c1ccc(-n2[nH]c3c(nnc4ccccc43)c2=O)cc1 [Example 280]
< 1000 nM	O=C(NCCN1CCC(Cc2ccccc2)CC1)Nc1ccc(-n2[nH]c3c(nnc4ccccc43)c2=O)cc1 [Example 224]
< 1000 nM	CC12CCC(C1)C(C)(C)C2NC(=O)c1ccc(-n2[nH]c3c(nnc4ccccc43)c2=O)cc1 (stereo not shown) [Example 318]
< 1000 nM	CN(C)CCCNC(=O)c1ccc(-n2[nH]c3c(nnc4cccc(F)c43)c2=O)cc1 [Example 387]
< 1000 nM	O=C(NCCCn1ccnc1)Nc1ccc(-n2[nH]c3c(nnc4ccccc43)c2=O)cc1 [Example 298]
< 1000 nM	O=C(NCCF)c1ccc(-n2[nH]c3c(nnc4c(F)cccc43)c2=O)cc1 [Example 426]
< 1000 nM	O=C(NCCNCc1ccccc1)c1ccc(-n2[nH]c3c(nnc4ccccc43)c2=O)cc1 [Example 281]
< 1000 nM	CN(C)CCNC(=O)Nc1ccc(-n2[nH]c3c(nnc4c(F)cccc43)c2=O)cc1 [Example 324]
1000 to 10000 nM	Cc1ccc(CCNC(=O)c2ccc(-n3[nH]c4c(nnc5c(F)cccc54)c3=O)cc2)cc1 [Example 362]
< 1000 nM	CN(C)CCCNC(=O)c1ccc(-n2[nH]c3c(nnc4c(Cl)cccc43)c2=O)cc1 [Example 411]
< 1000 nM	CN(CCCCNC(=O)c1ccc(-n2[nH]c3c(nnc4c(F)cccc43)c2=O)cc1)C1CCCCC1 [Example 436]
1000 to 10000 nM	O=C(NCCc1cccc(Cl)c1)c1ccc(-n2[nH]c3c(nnc4c(F)cccc43)c2=O)cc1 [Example 364]
< 1000 nM	CNCCCNC(=O)c1ccc(-n2[nH]c3c(nnc4cccc(F)c43)c2=O)cc1 [Example 396]
< 1000 nM	O=C(NCCCNC1CCCCC1)c1ccc(-n2[nH]c3c(nnc4c(F)cc(F)cc43)c2=O)cc1 [Example 415]
1000 to 10000 nM	CCOC(CNC(=O)Nc1ccc(-n2[nH]c3c(nnc4ccccc43)c2=O)cc1)OCC [Example 307]
< 1000 nM	CC(c1ccccc1)N1CCC(NC(=O)c2ccc(-n3[nH]c4c(nnc5c(F)cccc54)c3=O)cc2)CC1 (stereo not shown) [Example 337]
< 1000 nM	O=C(NCCCCO)c1ccc(-n2[nH]c3c(nnc4ccc(F)cc43)c2=O)cc1 [Example 386]
1000 to 10000 nM	CCCCNC(=O)c1ccc(-n2[nH]c3c(nnc4ccccc43)c2=O)cc1 [Example 241]
< 1000 nM	CC(C)NCCCNC(=O)c1ccc(-n2[nH]c3c(nnc4ccc(F)cc43)c2=O)cc1 [Example 385]
1000 to 10000 nM	O=C(NCCc1ccccc1Br)c1ccc(-n2[nH]c3c(nnc4c(F)cccc43)c2=O)cc1 [Example 368]
1000 to 10000 nM	O=C(NCC1CCNCC1)c1ccc(-n2[nH]c3c(nnc4ccccc43)c2=O)cc1 [Example 256]
> 10000 nM	O=C(NCCCc1ccccc1)Nc1ccc(-n2[nH]c3c(nnc4ccccc43)c2=O)cc1 [Example 291]
< 1000 nM	O=C(NCCCCN1CCCC1)c1ccc(-n2[nH]c3c(nnc4c(F)ccc(F)c43)c2=O)cc1 [Example 430]

Same assay, conditions: cell-free HTRF, compound concentration series 100 μM-1.7 nM, 4 hours at room temperature; read-out: Activity (EC50 in the HTRF assay)

EC50	SMILES
1000 to 10000 nM	C=C(C)C(=O)OCCNC(=O)c1ccc(-n2[nH]c3c(nnc4ccccc43)c2=O)cc1 [Example 28]
1000 to 10000 nM	C=C(C)CNC(=O)Nc1ccc(-n2[nH]c3c(nnc4ccccc43)c2=O)cc1 [Example 165]
< 1000 nM	CC1CCCCN1CCCNC(=O)c1ccc(-n2[nH]c3c(nnc4ccccc43)c2=O)cc1 (stereo not shown) [Example 32]
> 10000 nM	CC(C)=CCC/C(C)=C/CNC(=O)c1ccc(-n2[nH]c3c(nnc4ccccc43)c2=O)cc1 [Example 14]
> 10000 nM	CCCCC(CC)CNC(=O)c1ccc(-n2[nH]c3c(nnc4ccccc43)c2=O)cc1 (stereo not shown) [Example 25]
1000 to 10000 nM	CCC(CC)NC(=O)c1ccc(-n2[nH]c3c(nnc4ccccc43)c2=O)cc1 [Example 72]
< 1000 nM	O=C(NCCc1cccnc1)c1ccc(-n2[nH]c3c(nnc4ccccc43)c2=O)cc1 [Example 95]
> 10000 nM	CC1C(NC(=O)c2ccc(-n3[nH]c4c(nnc5ccccc54)c3=O)cc2)CC2CC1C2(C)C (stereo not shown) [Example 122]
> 10000 nM	O=C(NC1CCCCCCCCCCC1)c1ccc(-n2[nH]c3c(nnc4ccccc43)c2=O)cc1 [Example 59]
< 1000 nM	O=C(NCCN1CCOCC1)c1ccc(-n2[nH]c3c(nnc4ccccc43)c2=O)cc1 [Example 12]
> 10000 nM	O=C(NCC1CCCCCC1)Nc1ccc(-n2[nH]c3c(nnc4ccccc43)c2=O)cc1 [Example 204]
> 10000 nM	O=C(Nc1ccc(-n2[nH]c3c(nnc4ccccc43)c2=O)cc1)NC1CC2CCC1C2 (stereo not shown) [Example 199]
< 1000 nM	O=C(NCCN1CCN(Cc2ccccc2)CC1)c1ccc(-n2[nH]c3c(nnc4ccccc43)c2=O)cc1 [Example 37]
< 1000 nM	O=C(NCCCN1CCOCC1)Nc1ccc(-n2[nH]c3c(nnc4ccccc43)c2=O)cc1 [Example 179]
> 10000 nM	O=C(NCCCCc1ccccc1)Nc1ccc(-n2[nH]c3c(nnc4ccccc43)c2=O)cc1 [Example 188]
1000 to 10000 nM	CC(C)C(C)NC(=O)c1ccc(-n2[nH]c3c(nnc4ccccc43)c2=O)cc1 (stereo not shown) [Example 33]
1000 to 10000 nM	O=C(NCc1ccc([N+](=O)[O-])cc1)c1ccc(-n2[nH]c3c(nnc4ccccc43)c2=O)cc1 [Example 21]
< 1000 nM	CN1CCC(NC(=O)Nc2ccc(-n3[nH]c4c(nnc5ccccc54)c3=O)cc2)CC1 [Example 183]
1000 to 10000 nM	O=C(NCc1cccc([N+](=O)[O-])c1)c1ccc(-n2[nH]c3c(nnc4ccccc43)c2=O)cc1 [Example 39]
< 1000 nM	CCNC(=O)c1ccc(-n2[nH]c3c(nnc4ccccc43)c2=O)cc1 [Example 46]
> 10000 nM	CC(C)CC(C)NC(=O)Nc1ccc(-n2[nH]c3c(nnc4ccccc43)c2=O)cc1 (stereo not shown) [Example 124]
< 1000 nM	CCN1CCCC1CNC(=O)c1ccc(-n2[nH]c3c(nnc4ccccc43)c2=O)cc1 (stereo not shown) [Example 69]
< 1000 nM	CC1(C)CC(NC(=O)c2ccc(-n3[nH]c4c(nnc5ccccc54)c3=O)cc2)CC(C)(C)N1 [Example 103]

Same assay, conditions: cell-free HTRF, concentration series 100 μM-1.7 nM, 4 hours at room temperature; read-out: Activity (EC50 in the HTRF assay)

EC50	SMILES
< 1000 nM	C=CCCN1CCC(NC(=O)c2ccc(-n3[nH]c4c(nnc5c(F)cccc54)c3=O)cc2)CC1 [Example 483]
< 1000 nM	O=C(NC(CO)Cc1ccccc1)c1ccc(-n2[nH]c3c(nnc4c(F)cccc43)c2=O)cc1 (stereo not shown) [Example 514]
< 1000 nM	CC1CC(C)CN(CCCCNC(=O)c2ccc(-n3[nH]c4c(nnc5c(F)cccc54)c3=O)cc2)C1 (stereo not shown) [Example 477]
< 1000 nM	CC1CC(C)(C)C(CNC(=O)c2ccc(-n3[nH]c4c(nnc5c(F)cccc54)c3=O)cc2)C1N (stereo not shown) [Example 439]
< 1000 nM	CC(C)(C)CNC(=O)c1ccc(-n2[nH]c3c(nnc4c(F)cccc43)c2=O)cc1 [Example 455]
< 1000 nM	O=C(NC(CO)CO)c1ccc(-n2[nH]c3c(nnc4c(F)cccc43)c2=O)cc1 [Example 507]
1000 to 10000 nM	O=C(NC(CO)Cc1ccc(O)cc1)c1ccc(-n2[nH]c3c(nnc4c(F)cccc43)c2=O)cc1 (stereo not shown) [Example 511]
1000 to 10000 nM	C=CCN(CC=C)C(=O)c1ccc(-n2[nH]c3c(nnc4c(F)cccc43)c2=O)cc1 [Example 474]
< 1000 nM	CC(O)CCNC(=O)c1ccc(-n2[nH]c3c(nnc4c(F)cccc43)c2=O)cc1 (stereo not shown) [Example 502]
< 1000 nM	CCC(CO)NC(=O)c1ccc(-n2[nH]c3c(nnc4c(F)cccc43)c2=O)cc1 (stereo not shown) [Example 509]

Same assay, conditions: inhibition of the CD80-CD28 interaction, 4 hours at room temperature; read-out: EC50 activity in the HTRF assay

EC50	SMILES
> 10000 nM	O=C(O)c1ccc(-n2[nH]c3c(nnc4ccccc43)c2=O)cc1 [Example 1, 4-(3-oxo-1,3-dihydro-2H-pyrazolo[4,3-c]cinnolin-2-yl)benzoic acid]
